Experimental data: ChEMBL document CHEMBL4414660, “Effect of Modifier Structure on the Activation of Leukotriene A4 Hydrolase Aminopeptidase Activity” (J Med Chem, 2019)

Target: T1, Leukotriene A-4 hydrolase (Homo sapiens, UniProt P09960)
T1 sequence (P09960 whole entry): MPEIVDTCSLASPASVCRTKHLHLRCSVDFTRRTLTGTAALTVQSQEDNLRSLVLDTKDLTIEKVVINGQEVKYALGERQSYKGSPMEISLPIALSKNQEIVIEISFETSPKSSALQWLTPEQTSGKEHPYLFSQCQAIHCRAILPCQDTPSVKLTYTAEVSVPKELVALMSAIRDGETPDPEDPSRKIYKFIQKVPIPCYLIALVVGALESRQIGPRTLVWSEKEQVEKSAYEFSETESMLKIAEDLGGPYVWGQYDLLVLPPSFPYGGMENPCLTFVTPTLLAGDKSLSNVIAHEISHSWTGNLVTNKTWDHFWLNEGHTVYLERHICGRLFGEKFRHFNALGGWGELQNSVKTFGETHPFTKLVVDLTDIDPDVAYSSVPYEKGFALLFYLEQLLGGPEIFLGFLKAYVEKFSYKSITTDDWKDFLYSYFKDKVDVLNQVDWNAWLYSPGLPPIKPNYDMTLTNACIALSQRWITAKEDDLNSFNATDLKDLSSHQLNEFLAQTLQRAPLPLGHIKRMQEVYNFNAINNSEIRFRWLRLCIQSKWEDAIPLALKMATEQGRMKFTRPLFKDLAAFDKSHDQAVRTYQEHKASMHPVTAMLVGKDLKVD
Assay: Activation of N-terminal (His)6 and Xpress-tagged LTA4H (unknown origin) expressed in Escherichia coli BL21(DE3) cells assessed as increase in aminopeptidase activity by measuring p-nitroanilide release using L-Alanine-p-nitroanilide incubated for 10 mins by UV plate reader based assay

| AC50 | Compound |
| --- | --- |
| 6.62 µM | Cc1ccccc1Cc1ccc(-c2csc(N)n2)cc1 |
| 4.81 µM | Cc1cccc(Cc2ccc(-c3csc(N)n3)cc2)c1 |
